Measured values as given in paper PMC7273600 (The Journal of Veterinary Medical Science, 2020).
Marks after values point to notes of the source that are not given here.

Legend:
CYP1A [1] = assay: Inhibition of ethoxyresorufin O-deethylation; format: in vitro ADME; settings: rat hepatic microsomes; for Concentration that evidently inhibited EROD: Fig. 2
CYP1A1/2 = settings: read-out: IC50 for CYP1A1/2; human microsomes; cited from earlier work
CYP2B6 = settings: read-out: IC50 for CYP2B6; human microsomes; cited from earlier work
CYP2D6 = settings: read-out: IC50 for CYP2D6; human microsomes; cited from earlier work
[2] = ref Food Safety Commission of Japan; cited from earlier work
CYP2C [3] = assay: Hepatic microsomal TBH activity after oral administration for five days; settings: five consecutive days, P≤0.05
CYP2D [4] = assay: Hepatic microsomal BLH activity after oral administration for five days; settings: five consecutive days, P≤0.05
CYP1A [5] = assay: Hepatic microsomal EROD activity after oral administration for five days; settings: five consecutive days, P≤0.05
CYP3A [6] = assay: Hepatic microsomal MDZH activity after oral administration for five days; settings: five consecutive days, P≤0.05
cytochrome P450 = settings: five days; for Effect of oral treatment on total CYP content: decrease seen at high dose, P≤0.05; for Total cytochrome content, High dose / Total cytochrome content, Low dose: male SD rats, oral, mean ± SD (n=5); for Total cytochrome content, High dose: one-tenth of LD50; for Total cytochrome content, Low dose: one-thirtieth of LD50
CYP2C [7] = assay: Inhibition of tolbutamide hydroxylation; format: in vitro ADME, rat; settings: at 1,000 µM
CYP2D [8] = assay: Inhibition of bufuralol 1'-hydroxylation; format: in vitro ADME, rat; settings: at 1,000 µM
CYP3A [9] = assay: Inhibition of midazolam 4-hydroxylation; format: in vitro ADME, rat; settings: at 1,000 µM
CYP2C8 = settings: read-out: IC50 for CYP2C8; human microsomes; cited from earlier work
CYP2C9 = settings: read-out: IC50 for CYP2C9; human microsomes; cited from earlier work
CYP2D [10] = settings: read-out: Km of bufuralol reported in rats; cited from earlier work
CYP1A [11] = settings: read-out: Km of ethoxyresorufin reported in rats; cited from earlier work
CYP1A [12] = settings: cited from earlier work
CYP3A [13] = settings: read-out: Km of midazolam reported in rats; cited from earlier work
CYP2C [14] = settings: read-out: Km of tolbutamide reported in rats; cited from earlier work
CYP = settings: hen treated with tribufos; cited from earlier work

CCOP(=S)(OCC)Oc1nc(Cl)c(Cl)cc1Cl [Chlorpyrifos, chlorpyrifos]
Manner of EROD inhibition (CYP1A [1]): noncompetitive | Concentration that evidently inhibited EROD (CYP1A [1]): less than 1 µM | IC50 (CYP1A1/2): ~3000 nM | IC50 (CYP2B6): 2500 nM | IC50 (CYP2D6): ~3000 nM | Acceptable daily intake (ADI) [2]: 0.001 mg/kg/day | Microsomal activity of TBH compared with control group (CYP2C [3]): no significant effects | Microsomal activity of BLH compared with control group (CYP2D [4]): no significant effects | Microsomal activity of EROD compared with control group (CYP1A [5]): no significant effects | Microsomal activity of MDZH compared with control group (CYP3A [6]): no significant effects | Effect of oral treatment on total CYP content (cytochrome P450): significantly decreased | Total cytochrome content, High dose (cytochrome P450): 1.30 ± 0.48^a) nM/mg protein | Total cytochrome content, Low dose (cytochrome P450): 1.69 ± 0.18 nM/mg protein

COP(=O)(OC)OC=C(Cl)Cl [Dichlorvos, dichlorvos]
Inhibitory effect on TBH (CYP2C [7]): not evident | Inhibitory effect on BLH (CYP2D [8]): not evident | Inhibitory effect on MDZH (CYP3A [9]): not evident | Microsomal activity of TBH compared with control group (CYP2C [3]): no significant effects | Microsomal activity of BLH compared with control group (CYP2D [4]): no significant effects | Microsomal activity of EROD compared with control group (CYP1A [5]): no significant effects | Microsomal activity of MDZH compared with control group (CYP3A [6]): no significant effects | Effect of oral treatment on total CYP content (cytochrome P450): not significantly affected | Total cytochrome content, High dose (cytochrome P450): 1.75 ± 0.18 nM/mg protein | Total cytochrome content, Low dose (cytochrome P450): 1.69 ± 0.40 nM/mg protein

COP(=S)(OC)Oc1ccc([N+](=O)[O-])c(C)c1 [Fenitrothion, fenitrothion]
Manner of EROD inhibition (CYP1A [1]): noncompetitive | Concentration that evidently inhibited EROD (CYP1A [1]): less than 1 µM | IC50 (CYP1A1/2): ~3000 nM | IC50 (CYP2B6): 2500 nM | IC50 (CYP2C8): 4300 nM | IC50 (CYP2C9): 4800 nM | Acceptable daily intake (ADI) [2]: 0.005 mg/kg/day | Microsomal activity of TBH compared with control group (CYP2C [3]): significantly higher | Microsomal activity of EROD compared with control group (CYP1A [5]): significantly lower | Microsomal activity of MDZH compared with control group (CYP3A [6]): significantly lower | Effect of oral treatment on total CYP content (cytochrome P450): not significantly affected | Total cytochrome content, High dose (cytochrome P450): 1.18 ± 0.23 nM/mg protein | Total cytochrome content, Low dose (cytochrome P450): 1.38 ± 0.51 nM/mg protein

CCc1cccc2cc(C(O)CNC(C)(C)C)oc12 (stereo not shown) [bufuralol]
Km (CYP2D [10]): 6.4 µM

CCOc1ccc2nc3ccc(=O)cc-3oc2c1 [ethoxyresorufin]
Km (CYP1A [11]): 0.227 µM

CC1(C)C(C(=O)OC(C#N)c2cccc(Oc3ccccc3)c2)C1(C)C (stereo not shown) [fenpropathrin]
Effect on hepatic CYP1A (CYP1A [12]): potent inhibitor of CYP1A

CCOC(=O)CC(SP(=S)(OC)OC)C(=O)OCC (stereo not shown) [malathion]
IC50 (CYP2C9): 2500 nM

Cc1ncc2n1-c1ccc(Cl)cc1C(c1ccccc1F)=NC2 [midazolam]
Km (CYP3A [13]): 22 µM

CC1(C)C(C=C(Cl)Cl)C1C(=O)OCc1cccc(Oc2ccccc2)c1 (stereo not shown) [permethrin]
Effect on hepatic CYP1A (CYP1A [12]): potent inhibitor of CYP1A

CCOC(=O)C(SP(=S)(OC)OC)c1ccccc1 (stereo not shown) [phenthoate]
IC50 (CYP2D6): ~3000 nM

CCCSP(=O)(OCC)Oc1ccc(Br)cc1Cl (stereo not shown) [profenofos]
IC50 (CYP1A1/2): ~3000 nM

CCCCNC(=O)NS(=O)(=O)c1ccc(C)cc1 [tolbutamide]
Km (CYP2C [14]): 1910 µM

CCCCSP(=O)(SCCCC)SCCCC [tribufos, S,S,S-tri-n-butyl phosphorotrithioate]
Increase of CYP content in hepatic microsomes (CYP): 2–3 fold
